Assay results published in ChEMBL document CHEMBL1201862, “PubChem BioAssay data set” (2004).
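Method: 48-hour compound exposure of cells in 96-well plates, five concentrations, linear interpolation of endpoints. GI50: concentration for 50% inhibition of growth.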 Calls of active or inactive are those of the source. Rule as the data show it: active = GI50 up to about 1.1 µM and inactive = higher.

Key:
Test in all cases: inhibition of tumour cell growth, NCI panel, 48 h
[1] = test system: SK-MEL-2
[2] = test system: LOX IMVI
[3] = test system: COLO 205
[4] = test system: RXF 393
[5] = test system: MCF7
[6] = test system: SN12C
[7] = test system: HCT-15
[8] = test system: SK-OV-3
[9] = test system: SF-268
[10] = test system: MOLT-4
[11] = test system: KM12
[12] = test system: Hs-578T
[13] = test system: SK-MEL-5
[14] = test system: T47D
[15] = test system: Malme-3M
[16] = test system: MDA-MB-435
[17] = test system: SNB-75
[18] = test system: CAKI-1
[19] = test system: HOP-92
[20] = test system: EKVX

SMILES	GI50 [1]	GI50 [2]	GI50 [3]	GI50 [4]	GI50 [5]	GI50 [6]	GI50 [7] [µM]	GI50 [8]	GI50 [9]	GI50 [10]	GI50 [11]	GI50 [12]	GI50 [13]	GI50 [14]	GI50 [15]	GI50 [16]	GI50 [17]	GI50 [18]	GI50 [19]	GI50 [20]
OCC(Cn1cncn1)(c1ccc(F)cc1F)n1cncn1 (centres undefined)	> 100 µM (inactive)	> 100 µM (inactive)	> 100 µM (inactive)	> 100 µM (inactive)	> 100 µM (inactive)	> 100 µM (inactive)	> 100	> 100 µM (inactive)	> 100 µM (inactive)	> 100 µM (inactive)	> 100 µM (inactive)	> 100 µM (inactive)	> 100 µM (inactive)	> 100 µM (inactive)	> 100 µM (inactive)	> 100 µM (inactive)	> 100 µM (inactive)	> 100 µM (inactive)	–	–
CN1C(=O)CN(NC(=O)C2=C(O)c3ccc(Br)cc3S(=O)(=O)N2)C1=S	> 100 µM (inactive)	> 100 µM (inactive)	> 100 µM (inactive)	> 100 µM (inactive)	53.7 µM (inactive)	> 100 µM (inactive)	> 100	> 100 µM (inactive)	> 100 µM (inactive)	> 100 µM (inactive)	78.3 µM (inactive)	> 100 µM (inactive)	> 100 µM (inactive)	> 100 µM (inactive)	33.4 µM (inactive)	> 100 µM (inactive)	–	> 100 µM (inactive)	> 100 µM (inactive)	> 100 µM (inactive)
Cc1ccc(S(=O)(=O)N/N=C2/CCCOC2)cc1	> 100 µM (inactive)	> 100 µM (inactive)	> 100 µM (inactive)	> 100 µM (inactive)	> 100 µM (inactive)	> 100 µM (inactive)	> 100	> 100 µM (inactive)	> 100 µM (inactive)	> 100 µM (inactive)	> 100 µM (inactive)	> 100 µM (inactive)	> 100 µM (inactive)	> 100 µM (inactive)	> 100 µM (inactive)	> 100 µM (inactive)	–	> 100 µM (inactive)	> 100 µM (inactive)	> 100 µM (inactive)
O=C1/C(=C\c2cccc(Oc3ccccc3)c2)SC(c2ccccc2)N1Cc1ccccc1 (centres undefined)	18.2 µM (inactive)	15.5 µM (inactive)	10.3 µM (inactive)	20.1 µM (inactive)	26.1 µM (inactive)	33 µM (inactive)	32.8	19.1 µM (inactive)	35 µM (inactive)	30.1 µM (inactive)	24.5 µM (inactive)	29.1 µM (inactive)	14.8 µM (inactive)	26.2 µM (inactive)	22.2 µM (inactive)	23.3 µM (inactive)	–	49.7 µM (inactive)	19 µM (inactive)	28 µM (inactive)
CN(C)c1ccc(/C=C/c2ccnc3ccccc23)cc1N	8.65 µM (inactive)	7.41 µM (inactive)	2.53 µM (inactive)	–	1.57 µM (inactive)	14.8 µM (inactive)	6.24	15.2 µM (inactive)	9.73 µM (inactive)	5.64 µM (inactive)	7.85 µM (inactive)	15.3 µM (inactive)	2.82 µM (inactive)	0.547 µM (active)	10.9 µM (inactive)	2.55 µM (inactive)	6.5 µM (inactive)	–	0.337 µM (active)	4.72 µM (inactive)
COC(=O)c1c2c(cc3c1CC1(C3)Cc3cc4c(c(C(=O)OC)c3C1)CCCC4)CCCC2	1.55 µM (inactive)	> 100 µM (inactive)	> 100 µM (inactive)	> 100 µM (inactive)	> 100 µM (inactive)	> 100 µM (inactive)	> 100	> 100 µM (inactive)	–	57.5 µM (inactive)	> 100 µM (inactive)	> 100 µM (inactive)	53.3 µM (inactive)	> 100 µM (inactive)	> 100 µM (inactive)	> 100 µM (inactive)	–	–	> 100 µM (inactive)	> 100 µM (inactive)
O=C(NNC(=O)c1ccco1)c1ccco1	> 100 µM (inactive)	> 100 µM (inactive)	> 100 µM (inactive)	> 100 µM (inactive)	> 100 µM (inactive)	> 100 µM (inactive)	> 100	> 100 µM (inactive)	> 100 µM (inactive)	> 100 µM (inactive)	> 100 µM (inactive)	> 100 µM (inactive)	> 100 µM (inactive)	> 100 µM (inactive)	39.6 µM (inactive)	> 100 µM (inactive)	55 µM (inactive)	> 100 µM (inactive)	–	> 100 µM (inactive)
O=C1COc2cc(N3CCN(c4cccc(C(F)(F)F)c4)CC3)ccc2N1	> 100 µM (inactive)	> 100 µM (inactive)	> 100 µM (inactive)	–	> 100 µM (inactive)	> 100 µM (inactive)	> 100	> 100 µM (inactive)	> 100 µM (inactive)	> 100 µM (inactive)	> 100 µM (inactive)	> 100 µM (inactive)	> 100 µM (inactive)	> 100 µM (inactive)	–	> 100 µM (inactive)	> 100 µM (inactive)	> 100 µM (inactive)	> 100 µM (inactive)	> 100 µM (inactive)
CN(C)CC1CCC/C(=C\c2ccc(Cl)cc2)C1=O (centres undefined)	1.41 µM (inactive)	1.63 µM (inactive)	2.12 µM (inactive)	–	1.24 µM (inactive)	3.33 µM (inactive)	2.05	10.9 µM (inactive)	5.2 µM (inactive)	0.9 µM (active)	1.69 µM (inactive)	2.92 µM (inactive)	4 µM (inactive)	3.49 µM (inactive)	1.91 µM (inactive)	3.83 µM (inactive)	3.25 µM (inactive)	1.93 µM (inactive)	3.15 µM (inactive)	11.2 µM (inactive)
OCC1OC(n2cnc3cccnc32)CC1O (centres undefined)	> 100 µM (inactive)	> 100 µM (inactive)	> 100 µM (inactive)	> 100 µM (inactive)	> 100 µM (inactive)	> 100 µM (inactive)	> 100	–	> 100 µM (inactive)	> 100 µM (inactive)	> 100 µM (inactive)	> 100 µM (inactive)	> 100 µM (inactive)	> 100 µM (inactive)	–	> 100 µM (inactive)	7.76 µM (inactive)	> 100 µM (inactive)	> 100 µM (inactive)	> 100 µM (inactive)
O/N=C1/CCCCC1NO (centres undefined)	> 100 µM (inactive)	> 100 µM (inactive)	> 100 µM (inactive)	> 100 µM (inactive)	> 100 µM (inactive)	> 100 µM (inactive)	> 100	> 100 µM (inactive)	> 100 µM (inactive)	> 100 µM (inactive)	> 100 µM (inactive)	> 100 µM (inactive)	> 100 µM (inactive)	> 100 µM (inactive)	> 100 µM (inactive)	> 100 µM (inactive)	> 100 µM (inactive)	> 100 µM (inactive)	–	> 100 µM (inactive)
CC(=O)Nc1cccc(N2C(=O)/C(=C\c3cccc(Oc4ccccc4)c3)SC2c2ccccc2)c1 (centres undefined)	> 100 µM (inactive)	37.8 µM (inactive)	68.7 µM (inactive)	27.7 µM (inactive)	36.4 µM (inactive)	> 100 µM (inactive)	> 100	76 µM (inactive)	72.1 µM (inactive)	26.5 µM (inactive)	80.7 µM (inactive)	60 µM (inactive)	33.5 µM (inactive)	78.7 µM (inactive)	> 100 µM (inactive)	33.9 µM (inactive)	–	> 100 µM (inactive)	32.5 µM (inactive)	> 100 µM (inactive)
O=C(c1ccccc1)C(C(=O)c1ccccc1)c1nc2ccccc2sc1=O	13.5 µM (inactive)	9.68 µM (inactive)	12.5 µM (inactive)	> 25 µM (inactive)	12.2 µM (inactive)	6.22 µM (inactive)	7.48	6.46 µM (inactive)	> 25 µM (inactive)	8.09 µM (inactive)	12.6 µM (inactive)	24.5 µM (inactive)	15.6 µM (inactive)	> 25 µM (inactive)	9.53 µM (inactive)	10.4 µM (inactive)	–	13.1 µM (inactive)	2.72 µM (inactive)	16.1 µM (inactive)
CNc1cc(OCc2ccccc2)c(OC)cc1C(=O)N1CCC[C@H]1CO	> 100 µM (inactive)	> 100 µM (inactive)	> 100 µM (inactive)	> 100 µM (inactive)	> 100 µM (inactive)	> 100 µM (inactive)	> 100	> 100 µM (inactive)	> 100 µM (inactive)	> 100 µM (inactive)	> 100 µM (inactive)	> 100 µM (inactive)	> 100 µM (inactive)	> 100 µM (inactive)	> 100 µM (inactive)	> 100 µM (inactive)	> 100 µM (inactive)	> 100 µM (inactive)	–	> 100 µM (inactive)
O=C1OC(=O)C(=C\c2ccc3c(c2)OCO3)/C1=C/c1ccc2c(c1)OCO2	> 100 µM (inactive)	> 100 µM (inactive)	> 100 µM (inactive)	> 89.1 µM (inactive)	> 100 µM (inactive)	> 100 µM (inactive)	> 100	> 100 µM (inactive)	> 100 µM (inactive)	37.8 µM (inactive)	> 100 µM (inactive)	> 88.5 µM (inactive)	> 100 µM (inactive)	> 100 µM (inactive)	> 100 µM (inactive)	> 100 µM (inactive)	–	> 100 µM (inactive)	> 100 µM (inactive)	> 100 µM (inactive)
